In US20240016781A1, “TREATMENT OF KRAS MUTANT CANCERS” (MEI Pharma, Inc., priority 2020, published 2024):
Where two headings read alike, the source gives them in different places.

Experiments:
Assay in all cases: 72-hour CellTiter-Glo 2.0 growth inhibition screen (single agent, 9x9 combination dose matrix)
Type in all cases: cell-based
SW48 KRAS (G12C/+) = details: SW48 KRAS (G12C/+), Colorectal, 72 h; for EC50: read-out: EC50
Panc 04.03 = details: Panc 04.03, Pancreas, 72 h
KYSE-410 = details: KYSE-410, Esophageal, 72 h
SW837 = details: SW837, Colorectal, 72 h
SW48 = details: SW48, Colorectal, 72 h
[1] = Additional Single Agent Responses (inhibition, % I)
[2] = Additional Single Agent Responses
[3] = growth inhibition (GI) curve, single agent
[4] = growth inhibition (GI), AUC, single agent
[5] = growth inhibition (GI), single agent

## CN1CC[C@@H](c2c(O)cc(O)c3c(=O)cc(-c4ccc(C(F)(F)F)cc4Cl)oc23)[C@@H]1CO [MEI-522(Voruciclib)]
SW48 KRAS (G12C/+); [1]
  IC50: 0.731 µM
  Response Area: 2.74
  EC50: 0.591 µM
SW48 KRAS (G12C/+); [2]
  Max Response (% I): 85 % I
SW48 KRAS (G12C/+); [3]
  GI50: 0.586 µM
  EC50: 0.719 µM
SW48 KRAS (G12C/+); [4]
  Response Area: 3.67
SW48 KRAS (G12C/+); [5]
  Max Response (% GI): 115 % GI
Panc 04.03; [1]
  EC50: 1.31 µM
  IC50: 1.41 µM
  Response Area: 2.65
Panc 04.03; [2]
  Max Response (% I): 92 % I
Panc 04.03; [3]
  EC50: 1.74 µM
  GI50: 1.3 µM
Panc 04.03; [4]
  Response Area: 4.67
Panc 04.03; [5]
  Max Response (% GI): 168 % GI
KYSE-410; [1]
  EC50: 1.74 µM
  IC50: 1.9 µM
  Response Area: 1.97
KYSE-410; [2]
  Max Response (% I): 72 % I
KYSE-410; [3]
  EC50: 1.75 µM
  GI50: 1.8 µM
KYSE-410; [4]
  Response Area: 2.41
KYSE-410; [5]
  Max Response (% GI): 87 % GI
SW837; [1]
  EC50: 1.99 µM
  IC50: 2.09 µM
  Response Area: 2.44
SW837; [2]
  Max Response (% I): 90 % I
SW837; [3]
  EC50: 2.1 µM
  GI50: 1.75 µM
SW837; [4]
  Response Area: 4.48
SW837; [5]
  Max Response (% GI): 166 % GI
SW48; [1]
  EC50: 0.443 µM
  IC50: 0.525 µM
  Response Area: 2.91
SW48; [2]
  Max Response (% I): 87 % I
SW48; [3]
  EC50: 0.566 µM
  GI50: 0.422 µM
SW48; [4]
  Response Area: 4.44
SW48; [5]
  Max Response (% GI): 135 % GI
